From patent US20120058972A1, “NOVEL USE” (priority 2009, published 2012)

Legend:
[1] = test system: Dextran Sulphate Sodium Induced Colitis Mouse Model; test: Dextran sulphate sodium induced colitis mouse model, IL-6 and MIP-2 in colon tissue homogenates (ELISA); assay type: in vivo, C57BL/6 mice; conditions: 3.5% DSS in drinking water 5 days
From the text: Two groups (n=24 each) of adult C57BL/6 mice (Jackson Laboratories, Bar Harbour, Me., USA), conventionally raised (CR) and bacteria-depleted (BD) mice, were used to induce colitis. All animals were housed within a 12-h light/dark cycle and had access to mouse chow and water ad libitum.
At 6 weeks of age, conventionally colonised mice were housed under conventional conditions with untreated water (CR group) whilst mice in the BD group were fed an antibiotic cocktail in their drinking water for 2 weeks. Kanamycin (8 mg/ml), Gentamicin (0.7 mg/ml), Colistin (34,000 U/ml), Metronidazole (4.3 mg/ml) and Vanacomycin (0.9 mg/ml) comprised the antibiotic cocktail. Concentrations of antibiotics in the water were calculated based on the average water consumed by age group.
At 8 weeks of age, intestinal colitis was induced by feeding 3.5% DSS (Dextran Sulphate Sodium) (MP Biomedicals, Aurora, Ohio, USA) in drinking water for 5 days in all mice of both groups (CR and BD). At 10 weeks of age, half the mice of each group started receiving Bimuno (5 g/L) for 7 days. At the end of week 10, the animals were euthanized and their colons were harvested for analysis.
Murine IL-6 and MIP-2 cytokines were analysed by ELISA (Quantikine, R&D Systems, Minn., USA) on colon tissue homogenates according to manufacturer's instructions. Briefly, the proximal colons for each group were collected and homogenised with PBS homogenising buffer containing 1% Triton X-100 supplemented with a cocktail of protease inhibitors. The homogenised solutions were centrifuged at 12,000 rpm for 10 min, and the supernatants were separated into aliquots and stored at −70° C.

T84 cells = test: Effect of B-GOS on TNF-α induced IL-8 secretion in T84 cells (ELISA); assay type: cell-based, human; conditions: TNF-α 10 ng/mL, vs untreated, p<0.001
Method: (§1) Intestinal epithelial cells were grown to confluence in 24-well plates from an initial concentration of 5×10^5 cells/mL. When the cells reached 70% confluence, they were treated in quadruplicate as follows: (i) negative control, (ii) TNF-α (10 ng/mL) positive control, (iii) B-GOS (5 g/L) and (iv) TNF-α (10 ng/mL) with B-GOS (5 g/L). A concentration of 5 g/L of oligosaccharides was used since this is the physiological concentration of oligosaccharides found in human milk. After 16 hours, supernatants were collected and stored at −20° C. for IL-8 and MIP-3α secretion to be determined later by ELISA. In following experiments, TNF-α was replaced by IL1β or flagellin.
Quantitation of IL-8. The IL-8 concentration was measured by ELISA as described previously (Claud E C, Savidge T, Walker W A 2003 Modulation of human intestinal epithelial cell IL-8 secretion by human milk factors. Pediatr Res 53:419-425). […] The reaction was stopped with 100 μL 2N H2SO4 and the absorbance was read at 490 nm. The concentration of IL-8 in the samples was calculated from the IL-8 standard curve. […]
Statistical analysis. […] Gene expression data obtained by qRT-PCR was expressed as the mean with SE. […]

NCM-460 cells [2] = test: Effect of B-GOS on IL-8 and MIP-3α secretion in NCM-460 cells (ELISA); assay type: cell-based, human; conditions: TNF-α 10 ng/mL, vs untreated, p<0.001
Method: as §1
Quantitation of IL-8. The IL-8 concentration was measured by ELISA as described previously (Claud E C, Savidge T, Walker W A 2003 Modulation of human intestinal epithelial cell IL-8 secretion by human milk factors. Pediatr Res 53:419-425). […] The reaction was stopped with 100 μL 2N H2SO4 and the absorbance was read at 490 nm. The concentration of IL-8 in the samples was calculated from the IL-8 standard curve.
Quantitation of MIP-3α. The amount of MIP-3α secretion was measured by ELISA similar to IL-8, except that the plate was coated overnight with 100 μL 2.0 μg/mL mouse anti-human MIP-3α monoclonal antibody. […] The concentration of MIP-3α in the samples was calculated from the MIP-3α standard curve. […]

NCM-460 cells [3] = test: Effect of B-GOS on induction of cytokine transcription (qRT-PCR of IL-8, MIP-3α, MCP-1 mRNA); assay type: cell-based, human; conditions: TNF-α 10 ng/mL, 18 hours, p<0.001
Method: Effect of B-GOS on induction of cytokine transcription. NCM-460 cells were grown to confluence in 6-well plates from an initial concentration of 5×10^5 cells/mL. When the cells reached 70% confluence, they were treated as follows in quadruplicate: (i) negative control, (ii) TNF-α or IL1β or flagellin (10 ng/mL) positive control, and (iii) TNF-α or IL1β or flagellin (10 ng/mL) with B-GOS (5 g/L). After 18 hours, total cellular RNA was isolated by Trizol-chloroform extraction. Using the SuperScript III Platinum SYBR Green One-Step qRT-PCR kit, the mRNA expression of IL-8, MIP-3α and MCP-1 was measured on a MJ Opticon 2 and standardized to mRNA expression of GAPDH.
Statistical analysis. Induction of cytokines was standardized to the positive control with error bars representing standard error (SE). Comparisons between groups were performed using a two-tailed Student's t test. Gene expression data obtained by qRT-PCR was expressed as the mean with SE. Comparisons between groups were performed using a Student's two-tailed t test after logarithmic transformation. A p value <0.05 was considered statistically significant and indicated by an asterisk (*), a p value <0.01 was indicated by two asterisks (**) and a p value <0.001 was indicated by three asterisks (***).

NF-κB p65 protein = test: Effect of B-GOS on NF-κB translocation (immunofluorescence); assay type: cell-based, human; conditions: NCM-460 cells, TNF-α 10 ng/mL alone, 30 minutes
Method: Effect of B-GOS on NF-KB translocation. NCM-460 cells were grown to 70% confluency on cover slips and treated in duplicate for 10 or 30 minutes as follows: (i) negative control, (ii) TNF-α (10 ng/mL) positive control, and (iii) TNF-α (10 ng/mL) with B-GOS (5 g/L). The medium was removed and the cells were fixed in 4% paraformaldehyde. After permeabilization with methanol and blocking with 10% goat serum in 0.25% BSA in TBS, the cells were probed with rabbit anti-human NF-κB p65 polyclonal antibody. After washing, the cells were incubated with CyTM 3-conjugated goat anti-rabbit antibody. The cover slips were then washed and mounted on a glass slide to be visualized under the microscope (Nikon Eclipse TE2000-S).

Substance	induction of IL-6 secretion by DSS ([1]; BD mice, p<0.0001) [fold]	induction of MIP-2 secretion by DSS ([1]; BD mice, p=0.0005) [fold]	induction of IL-6 secretion by DSS ([1]; conventional mice, p<0.0001) [fold]	induction of MIP-2 secretion by DSS ([1]; conventional mice, p<0.0001) [fold]	increase of IL-8 secretion upon TNF-α stimulation (T84 cells) [fold]	increase of IL-8 secretion upon TNF-α stimulation (NCM-460 cells [2]) [fold]	increase of MIP-3α secretion upon TNF-α stimulation (NCM-460 cells [2]) [fold]	increase of IL-8 mRNA expression upon TNF-α stimulation (NCM-460 cells [3]) [fold]	increase of MIP-3α mRNA expression upon TNF-α stimulation (NCM-460 cells [3]) [fold]	nuclear translocation of NF-κB p65 upon TNF-α stimulation (NF-κB p65 protein)
Dextran Sulphate Sodium [DSS]	6.2	27.2	2.2	8.3	–	–	–	–	–	–
TNF-α	–	–	–	–	4.9	58.8	25.0	12.2	99.4	clearly translocated into the nuclei
